Assay results taken from patent US20230416271A1, “HETEROARYLQUINAZOLINE COMPOUNDS AS PROTEIN KINASE INHIBITORS” (CHENGDU CYNOGEN BIO-PHARMACEUTICAL TECHNOLOGY CO., LTD., priority 2020, published 2023).

Assays:
Format in all cases: biochemical
CDK4/cyclin D3 = CDK4/cyclin D3 (Homo sapiens (Human), UniProt P11802); test: Kinase activity assay (Caliper Mobility Shift Assay), CDK4/cyclin D3; details: 10 nM kinase, 250 uM ATP
Description: (§1) The inhibitory effect of compounds against the kinase CDK4/cyclin D3 was detected by Caliper Mobility Shift Assay method. The final concentration of the compounds to be tested was set at 10 concentrations starting from 1 uM by 3-fold serial dilution. 5 μL of compounds at 5-fold final concentration and 10 μL of CDK4/cyclin D3 kinase solution at a final concentration of 10 nM was added to a 384-well reaction plate, respectively. The plate was pre-incubated for 10 min at room temperature (with negative control wells containing 10 uL of kinase buffer and 5 uL of 5% DMSO; positive control wells containing 10 μL of kinase solution and 5 uL of 5% DMSO). The reaction was initiated by adding 10 μL of ATP at a final concentration of 250 uM and the corresponding substrate peptide mixture at room temperature for 150 minutes. 30 uL of stop detection solution containing EDTA was added to stop the kinase reaction. Caliper EZ Reader was used to read the conversion rate. Conversion inhibition rate %=(average conversion rate of positive control %−conversion rate of sample %)/(average conversion rate of positive control %−average conversion rate of negative control %). wherein: negative control wells represent the conversion rate readings of wells without enzymatic activity; positive control wells represent conversion readings for wells with no compound inhibition. The log(inhibitor) vs. response—Variable slope of the analysis software GraphPad Prism 5 was used with log concentration value as the X-axis and the percent inhibition rate as the Y-axis to fit the dose-response curve, the IC50 value of each compound on the enzyme activity was thus obtained. Calculation formula: Y=Bottom+(Top−Bottom)/(1+10^((Log IC50−X)*HillSlope)).

CDK2/Cyclin A2 = CDK2/Cyclin A2 (Homo sapiens (Human), UniProt P24941); test: Kinase activity assay (Caliper Mobility Shift Assay), CDK2/Cyclin A2
Description: as §1
(§2) The IC50 values and inhibitory activities of compounds of the present disclosure on CDK6/Cyclin D3, CDK2/Cyclin A2, and CDK9/cyclin T1 were tested in a similar manner.

CDK6/Cyclin D3 = CDK6/Cyclin D3 (Homo sapiens (Human), UniProt Q00534); test: Kinase activity assay (Caliper Mobility Shift Assay), CDK6/Cyclin D3
Description: as §1, §2

Chain of CDK4/cyclin D3 (P11802 whole entry, species assumed): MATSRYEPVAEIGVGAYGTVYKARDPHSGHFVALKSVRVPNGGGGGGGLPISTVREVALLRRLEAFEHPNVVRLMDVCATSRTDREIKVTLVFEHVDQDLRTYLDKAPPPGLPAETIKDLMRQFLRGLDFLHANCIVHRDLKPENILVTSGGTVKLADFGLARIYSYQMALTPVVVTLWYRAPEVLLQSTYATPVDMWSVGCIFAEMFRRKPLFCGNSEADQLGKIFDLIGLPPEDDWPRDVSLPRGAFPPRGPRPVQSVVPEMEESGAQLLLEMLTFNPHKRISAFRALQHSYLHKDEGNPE
Chain of CDK4/cyclin D3 (P30281 whole entry partner, species assumed): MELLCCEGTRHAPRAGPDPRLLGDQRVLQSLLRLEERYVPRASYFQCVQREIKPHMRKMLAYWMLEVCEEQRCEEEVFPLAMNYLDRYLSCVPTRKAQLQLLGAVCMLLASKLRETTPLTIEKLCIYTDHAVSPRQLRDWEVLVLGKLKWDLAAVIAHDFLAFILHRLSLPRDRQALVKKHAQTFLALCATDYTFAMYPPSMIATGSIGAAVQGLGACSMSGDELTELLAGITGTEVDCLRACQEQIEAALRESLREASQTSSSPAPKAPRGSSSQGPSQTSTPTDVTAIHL
Chain of CDK6/Cyclin D3 (Q00534 whole entry, species assumed): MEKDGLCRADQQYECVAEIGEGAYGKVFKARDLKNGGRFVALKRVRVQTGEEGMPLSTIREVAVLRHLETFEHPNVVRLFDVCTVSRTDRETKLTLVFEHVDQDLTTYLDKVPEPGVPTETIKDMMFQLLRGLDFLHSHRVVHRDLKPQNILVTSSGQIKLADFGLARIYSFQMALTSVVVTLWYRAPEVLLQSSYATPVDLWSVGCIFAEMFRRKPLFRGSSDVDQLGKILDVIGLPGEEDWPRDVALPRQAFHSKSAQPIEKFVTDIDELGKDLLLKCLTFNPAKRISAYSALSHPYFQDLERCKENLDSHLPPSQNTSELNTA
Chain of CDK6/Cyclin D3 (P30281 whole entry partner, species assumed): as the sequence (P30281 whole entry partner, species assumed) above

## COCCS(=O)(=O)N1CCC(Nc2ncc3ccc4nnn(C(C)C)c4c3n2)CC1 [II.18, 1-isopropyl-N-(1-((2-methoxyethyl)sulfonyl)piperidin-4-yl)-1H-[1,2,3]triazolo[4,5-h]quinazolin-8-amine]
CDK4/cyclin D3
  IC50: 3 nM
CDK2/Cyclin A2
  IC50: 1 nM
CDK6/Cyclin D3
  IC50: 8 nM

## CC(C)n1nnc2ccc3cnc(NC4CCN(S(=O)(=O)C(F)F)CC4)nc3c21 [II.19, N-(1-((difluoromethyl)sulfonyl)piperidin-4-yl)-1-isopropyl-1H-[1,2,3]triazolo[4,5-h]quinazolin-8-amine]
CDK4/cyclin D3
  IC50: 3 nM
CDK2/Cyclin A2
  IC50: 0.4 nM
CDK6/Cyclin D3
  IC50: 4 nM

## CNS(=O)(=O)N1CCC(Nc2ncc3ccc4nnn(C(C)C)c4c3n2)CC1 [II.20, 4-((1-isopropyl-1H-[1,2,3]triazolo[4,5-h]quinazolin-8-yl)amino)-N-methylpiperidin-1-sulfamide]
CDK4/cyclin D3
  IC50: 4 nM
CDK2/Cyclin A2
  IC50: 0.2 nM
CDK6/Cyclin D3
  IC50: 12 nM

## CC(C)n1nnc2c(F)cc3cnc(NC4CCN(S(C)(=O)=O)CC4)nc3c21 [II.21, 4-fluoro-1-isopropyl-N-(1-(methylsulfonyl)piperidin-4-yl)-1H-[1,2,3]triazolo[4,5-h]quinazolin-8-amine]
CDK4/cyclin D3
  IC50: 2 nM
CDK2/Cyclin A2
  IC50: 0.2 nM
CDK6/Cyclin D3
  IC50: 5 nM

## CC(C)n1nnc2cc(F)c3cnc(NC4CCN(S(C)(=O)=O)CC4)nc3c21 [II.22, 5-fluoro-1-isopropyl-N-(1-(methylsulfonyl)piperidin-4-yl)-1H-[1,2,3]triazolo[4,5-h]quinazolin-8-amine]
CDK4/cyclin D3
  IC50: 3 nM
CDK2/Cyclin A2
  IC50: 0.2 nM
CDK6/Cyclin D3
  IC50: 4 nM

## CC(C)n1nnc2c(Cl)cc3cnc(NC4CCN(S(C)(=O)=O)CC4)nc3c21 [II.23, 4-chloro-1-isopropyl-N-(1-(methylsulfonyl)piperidin-4-yl)-1H-[1,2,3]triazolo[4,5-h]quinazolin-8-amine]
CDK4/cyclin D3
  IC50: 3 nM
CDK2/Cyclin A2
  IC50: 0.4 nM
CDK6/Cyclin D3
  IC50: 9 nM

## CC(C)n1nnc2c(Br)cc3cnc(NC4CCN(S(C)(=O)=O)CC4)nc3c21 [II.24, 4-bromo-1-isopropyl-N-(1-(methylsulfonyl)piperidin-4-yl)-1H-[1,2,3]triazolo[4,5-h]quinazolin-8-amine]
CDK4/cyclin D3
  IC50: 4 nM
CDK2/Cyclin A2
  IC50: 1 nM
CDK6/Cyclin D3
  IC50: 16 nM

## [2H]c1cc2cnc(NC3CCN(S(C)(=O)=O)CC3)nc2c2c1nnn2C(C)C [II.25, 1-isopropyl-N-(1-(methylsulfonyl)piperidin-4-yl)-1H-[1,2,3]triazolo [4,5-h]quinazolin-4-d-8-amine]
CDK4/cyclin D3
  IC50: 3 nM
CDK2/Cyclin A2
  IC50: 0.2 nM
CDK6/Cyclin D3
  IC50: 5 nM

## Cc1cc2cnc(NC3CCN(S(C)(=O)=O)CC3)nc2c2c1nnn2C(C)C [II.26, 1-isopropyl-4-methyl-N-(1-(methylsulfonyl)piperidin-4-yl)-1H-[1,2,3] triazolo[4,5-h]quinazolin-8-amine]
CDK4/cyclin D3
  IC50: 3 nM
CDK2/Cyclin A2
  IC50: 0.4 nM
CDK6/Cyclin D3
  IC50: 8 nM

## CC(C)n1nnc2c(C(F)F)cc3cnc(NC4CCN(S(C)(=O)=O)CC4)nc3c21 [II.27, 4-(difluoromethyl)-1-isopropyl-N-(1-(methylsulfonyl)piperidin-4-yl)-1H-[1,2,3]triazolo[4,5-h]quinazolin-8-amine]
CDK4/cyclin D3
  IC50: 3 nM
CDK2/Cyclin A2
  IC50: 0.2 nM
CDK6/Cyclin D3
  IC50: 5 nM

## CCS(=O)(=O)N1CCC(Nc2ncc3cc(C(F)F)c4nnn(C(C)C)c4c3n2)CC1 [II.28, 4-(difluoromethyl)-N-(1-(ethylsulfonyl)piperidin-4-yl)-1-isopropyl-1H-[1,2,3]triazolo[4,5-h]quinazolin-8-amine]
CDK4/cyclin D3
  IC50: 3 nM
CDK2/Cyclin A2
  IC50: 0.2 nM
CDK6/Cyclin D3
  IC50: 7 nM

## CC(C)n1nnc2c(C(F)F)cc3cnc(NC4CCN(S(=O)(=O)C5CC5)CC4)nc3c21 [II.29, N-(1-(cyclopropylsulfonyl)piperidin-4-yl)-4-(difluoromethyl)-1-isopropyl-1H-[1,2,3]triazolo[4,5-h]quinazolin-8-amine]
CDK4/cyclin D3
  IC50: 1 nM
CDK2/Cyclin A2
  IC50: 0.2 nM
CDK6/Cyclin D3
  IC50: 3 nM
